Measured values published in US4910225A, “Locally administrable therapeutic composition for inflammatory disease” (Senju Pharmaceutical Co., Ltd., priority 1988, dated 1990).

Experiments:
[1] = tested on: carrageenin edema in rats; assay: Carrageenin edema of the conjunctiva in rats; format: in vivo; details: 4 hours after carrageenin; for Weight of Edema: mean ± SE for 10 eyes
Method: 1. Sodium 3-(4-bromobenzoyl)-2-aminophenyl-acetate (hereinafter referred to as Compound [I])
2. Sodium 3-(4-chlorobenzoyl)-2-aminophenyl-acetate (hereinafter referred to as Compound [II])
3. Sodium 3-benzoyl-2-aminophenylacetate (hereinafter referred to as Compound [III])
Using female Wister rates weighing 100 g in groups of 5 animals or 10 eyes, 0.05 ml of 1% carrageenin (dissolved in physiological saline at 50° C.) as a phlogogen was injected beneath the conjuctiva of both eyes to induce edema. Physiological saline, as a control, and test drugs were respectively instilled into both eyes 40 and 20 minutes before and immediately after the injection of carrageenin, in the amount of 2.5 μl per dose. Four hours after the phlogogen treatment, each animal was sacrificed by cervical dislocation and in accordance with the method of Maistrello et al.^(2), the scalp was peeled off toward the eyelid and the edematous portion together with the skin was removed along the lid margin and weighed.
^(2) Maistrello et al.: Quantitative Effect of Topically Applied Anti-inflammatory Agents on External Ocular Inflammation in Rats: Journal of Pharmaceutical Science, volume 62, pp. 1455-60(1973).

[2] = tested on: atropine-resistant miosis; assay: Atropine-resistant miosis after paracentesis; format: in vivo, albino rabbits
Method: (§1) The solutions of the following formulas were used.
(§2) Totally 28 male albino rabbits (4 rabbits×7 groups) with a body weight of about 2 kg werr used. They had been confirmed, before the experiment, to have mydriatic response to 1% atropine for at least 4 hours.
(§3) 50 μl each of 1% atropine solution was instilled into both eyes of the animals one hour before the 1st paracenthesis, in which approx. 0.2 ml/eye of aqueous humor (primary aqueous humor) was collected. Topical application of 50 μl each of the test drug solutions was conducted 30 min before the paracenthesis. Pupil diameter of each eye was measured with a slide caliper immediately before and 10 min after the paracenthesis. The 2nd paracenthesis was conducted 90 min after the 1st one, in which approx. 0.2 ml/eye of aqueous humor (secondary aqueous humor) was collected.

[3] = tested on: protein increase after paracentesis; assay: Protein increase in aqueous humor after paracentesis; format: in vivo, albino rabbits; details: content 0.5%
Method: as §1, §2, §3

cyclooxgenase = details: cited from earlier work

| Compound | Degree of inhibition (carrageenin edema) ([1]; 1.0%) | Weight of Edema ([1]; 1.0%) | Degree of inhibition (carrageenin edema) ([1]; 5.0%) | Weight of Edema ([1]; 5.0%) | Degree of inhibition (carrageenin edema) ([1]; 0.5%) | Weight of Edema ([1]; 0.5%) | Inhibitory activity on miosis after paracentesis ([2]; Compound [I] 0.0001-0.1%, indomethacin as high as 0.5%) | Inhibition (miosis) ([2]; content 0.5%) | Miosis ([2]; content 0.5%, 10 min after paracentesis) | Inhibition (protein increase) [3] | Cyclooxygenase inhibitory activity (cyclooxgenase) |
| --- | --- | --- | --- | --- | --- | --- | --- | --- | --- | --- | --- |
| Nc1c(CC(=O)[O-])cccc1C(=O)c1ccccc1.[Na+] [Compound [III], Sodium 3-benzoyl-2-aminophenylacetate] | 41.4% | 30.98 ± 3.194 mg | 37.9% | 32.80 ± 2.409 mg | – | – | – | – | – | – | – |
| Nc1c(CC(=O)[O-])cccc1C(=O)c1ccc(Cl)cc1.[Na+] [Compound [II], Sodium 3-(4-chlorobenzoyl)-2-aminophenyl-acetate] | 34.4% | 39.02 ± 3.057 mg | – | – | 36.9% | 37.52 ± 2.423 mg | – | – | – | – | – |
| COc1ccc2c(c1)c(CC(=O)O)c(C)n2C(=O)c1ccc(Cl)cc1 [Indomethacin, reference compound] | – | – | – | – | – | – | little effect was observed | 6.0 ± 21.4% | 16.4 ± 3.86% | 69.7% | strong cyclooxgenase inhibitory activity |
